Literature values, collected in patent publication US20140194454A1, “COMBINATIONS OF TROSPIUM AND SALIVARY STIMULANTS FOR THE TREATMENT OF OVERACTIVE BLADDER” (TheraVida, Inc., priority 2011, published 2014).

Settings: 5 mg of pilocarpine

Structure (SMILES): CC[C@@H]1C(=O)OC[C@@H]1Cc1cncn1C [pilocarpine]
- time of maximum saliva output after administration: about 30 minutes
